This is an account of results in US7659299B2, “Compounds inhibiting the binding of sap for treating osteoarthritis” (Pentraxin Therapeutics Limited, priority 2003, dated 2010).

What all share (set-up): 5 μl of radiolabelled SAP in TN; from tissue
For assay [1], the target named is T1, SAP (Homo sapiens, UniProt P02743). The experiment in a line: Inhibition of binding of 125I radiolabelled SAP to Neisseria meningitidis immobilized in microtitre plates. The note with it: for inhibition at 0.2 µM: compound 200 nM; for inhibition at 0.2 µM / inhibition at 2 µM / inhibition at 20 µM / inhibition at 200 µM / inhibition at 2000 µM: read-out: Percent inhibition of binding of radiolabelled SAP to immobilized Neisseria meningitidis; for inhibition at 2 µM: compound 2 μM; for inhibition at 20 µM: compound 20 μM; for inhibition at 200 µM: compound 200 μM; for inhibition at 2000 µM: compound 2 mM. As to the method:
A suspension of heat killed Neisseria meningitidis at 1×10^8 organisms per ml in PBS was dispensed to polystyrene microtitre plates at 50 μl volumes per well, and left overnight at 4° C. All wells were then washed three times with 200 μl volumes of PBS containing 0.05% v/v Tween 20, prior to equilibration for 2 min with 0.01M Tris buffered 0.14M NaCl/0.002M CaCl2 at pH 8.0 (TC buffer), containing 4% w/v BSA and 0.05%/v Tween 20 (TCBT buffer). The wells were then emptied before adding to each one the following reagents. […] For background, non-specific, non calcium dependent, binding in the presence of EDTA: 5 μl radiolabelled SAP in TN and 45 μl 0.01M Tris buffered 0.14M NaCl at pH 8.0 containing 11.1 mM EDTA, 4.4% w/v BSA and 0.06% w/v Tween 20 (TEBT buffer) to provide final concentrations of EDTA, 10 mM; BSA, 4%; Tween 20, 0.05%. […] All wells were then incubated at room temperature for 2 h before being washed three times with 200 μl volumes of TCBT, allowed to dry for 1 h at room temperature, and bound radiolabelled SAP was then counted.
The capacity of the compounds tested to inhibit binding of SAP to meningococci is expressed as the percentage by which SAP binding was reduced compared to binding in the absence of any inhibitor (Table 1).

The target in assay [2] is T1, SAP. In words: Inhibition of binding of 125I radiolabelled SAP to native long chromatin immobilized in microtitre plates. Conditions: for inhibition at 0.2 µM: compound 200 nM; for inhibition at 0.2 µM / inhibition at 2 µM / inhibition at 20 µM / inhibition at 200 µM / inhibition at 2000 µM: read-out: Percent inhibition of binding of radiolabelled SAP to immobilized native long chromatin; for inhibition at 2 µM: compound 2 μM; for inhibition at 20 µM: compound 20 μM; for inhibition at 200 µM: compound 200 μM; for inhibition at 2000 µM: compound 2 mM.

In assay [3] the target is T1, SAP. The experiment in a line: Inhibition of binding of 125I radiolabelled SAP to influenza virus immobilized in microtitre plates. The note with it: for inhibition at 0.2 µM: compound 200 nM; for inhibition at 0.2 µM / inhibition at 2 µM / inhibition at 20 µM / inhibition at 200 µM / inhibition at 2000 µM: read-out: Percent inhibition of binding of radiolabelled SAP to immobilized influenza virus; for inhibition at 2 µM: compound 2 μM; for inhibition at 20 µM: compound 20 μM; for inhibition at 200 µM: compound 200 μM; for inhibition at 2000 µM: compound 2 mM. As for the experimental part:
A concentrated suspension of purified influenza virus A/Shanghai/24/90 at 10 mg protein per ml in PBS was diluted 1:50 in PBS and then dispensed to polystyrene microtitre plates at 50 μl volumes per well, and left overnight at 4° C. All wells were then emptied before blocking by addition to each well of 200 μl of 2% w/v BSA in PBS and incubation at room temperature for 1 h. All wells were then washed three times with 200 μl volumes of PBS containing 0.05% v/v Tween 20, prior to equilibration for 2 min with 0.01M Tris buffered 0.14M NaCl/0.002M CaCl2 at pH 8.0 (TC buffer), containing 4% w/v BSA and 0.05% v/v Tween 20 (TCBT buffer). The wells were then emptied before adding to each one the following reagents. […] For background, non-specific, non calcium dependent, binding in the presence of EDTA: 5 μl radiolabelled SAP in TN and 45 μl 0.01M Tris buffered 0.14M NaCl at pH 8.0 containing 11.1 mM EDTA, 4.4% w/v BSA and 0.06% w/v Tween 20 (TEBT buffer) to provide final concentrations of EDTA, 10 mM; BSA, 4%; Tween 20, 0.05%. […] All wells were then incubated at room temperature for 2 h before being washed three times with 200 μl volumes of TCBT, allowed to dry for 1 h at room temperature, and bound radiolabelled SAP was then counted. The compounds tested in the experiment shown here were the same as those specified in Example B above.
The capacity of the compounds tested to inhibit binding of SAP to the immobilised influenza virus is expressed as the percentage by which SAP binding was reduced compared to binding in the absence of any inhibitor (Table 3).

T1 sequence (P02743 20-223): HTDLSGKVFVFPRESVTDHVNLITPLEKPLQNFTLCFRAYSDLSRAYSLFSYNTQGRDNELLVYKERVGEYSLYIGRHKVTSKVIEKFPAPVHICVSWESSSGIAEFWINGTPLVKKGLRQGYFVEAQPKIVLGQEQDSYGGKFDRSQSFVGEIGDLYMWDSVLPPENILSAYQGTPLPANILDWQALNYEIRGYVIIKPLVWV

Take `O=C(O)CN(CCN(CC(=O)O)CC(=O)O)CC(=O)O` [EDTA, reference compound]: the “Percent inhibition of binding of radiolabelled SAP to immobilized Neisseria meningitidis” value at SAP [1] (EDTA 10 mM (printed in the 2 mM column)) came out at 100%. Also, at SAP [1] (summary of Table 1), the “Inhibition of binding of SAP to meningococci, in words” value is listed as “All binding was inhibited”. For the same compound, on SAP [2] (Table 2), the “Inhibition of binding of SAP to chromatin, in words” value is “All binding was inhibited”. Further, on SAP [3] (summary of Table 3), the “Inhibition of binding of SAP to immobilised influenza virus, in words” value was “All binding was inhibited”.

On to `O=C(O)[C@H]1CCCN1C(=O)Cc1ccc(CC(=O)N2CCC[C@@H]2C(=O)O)cc1` [Ro-63-7777, (R)-1-[[4-[2-[(R)-2-Carboxy-pyrrolidin-1-yl]-2-oxo-ethyl]-phenyl]-acetyl]-pyrrolidine-2-carboxylic acid], for which, on SAP [1], the inhibition at 0.2 µM was 7%, the inhibition at 2 µM came out at 64%, the inhibition at 20 µM was 73% and the inhibition at 200 µM amounted to 100%. Further, the inhibition at 2000 µM on SAP [1] was 100%. At SAP [2], the inhibition at 0.2 µM stood at 4%, the inhibition at 2 µM worked out at 19%, the inhibition at 20 µM amounted to 39% and the inhibition at 200 µM turned out to be 66%. In addition, the inhibition at 2000 µM at SAP [2] came to 92%. On SAP [3], the inhibition at 0.2 µM stood at 37%, the inhibition at 2 µM stood at 65%, the inhibition at 20 µM is 85% and the inhibition at 200 µM amounted to 89%. On SAP [3], the inhibition at 2000 µM turned out to be 89%.

Turning to `O=C(O)[C@H]1CCCN1C(=O)COc1ccccc1OCC(=O)N1CCC[C@@H]1C(=O)O` [Ro-63-8593, (R)-1-[[2-[2-[(R)-2-Carboxy-pyrrolidin-1-yl]-2-oxo-ethoxy]-phenoxyl]-acetyl]-pyrrolidine-2-carboxylic acid], at SAP [1], the inhibition at 0.2 µM was 18%, the inhibition at 20 µM was determined as 87%, the inhibition at 200 µM turned out to be 100% and the inhibition at 2000 µM was 100%. Also, on SAP [2], the inhibition at 0.2 µM was 7%, the inhibition at 2 µM came to 34%, the inhibition at 20 µM was found to be 77% and the inhibition at 200 µM stood at 89%. The inhibition at 2000 µM at SAP [2] was found to be 96%. Besides, at SAP [3], the inhibition at 0.2 µM worked out at 44%, the inhibition at 2 µM is 68%, the inhibition at 20 µM was 88% and the inhibition at 200 µM was 93%. At SAP [3], the inhibition at 2000 µM worked out at 94%.

`O=C(O)[C@H]1CCCN1C(=O)[C@H]1CC[C@@H](C(=O)N2CCC[C@@H]2C(=O)O)CC1` [Ro-64-2600, (R)-1-[cis-4-[(R)-2-Carboxy-pyrrolidine-1-carbonyl]-cyclohexanecarbonyl]-pyrrolidine-2-carboxylic acid]: on SAP [1], the inhibition at 0.2 µM worked out at 31%, the inhibition at 2 µM was 73% and the inhibition at 20 µM turned out to be 93%. At SAP [2], the inhibition at 0.2 µM stood at 1%, the inhibition at 2 µM worked out at 35%, the inhibition at 20 µM came out at 67% and the inhibition at 200 µM amounted to 94%. Further, at SAP [2], the inhibition at 2000 µM stood at 100%. Also, at SAP [3], the inhibition at 0.2 µM came out at 0%, the inhibition at 2 µM was found to be 76%, the inhibition at 20 µM was determined as 83% and the inhibition at 200 µM amounted to 89%. In addition, the inhibition at 2000 µM at SAP [3] stood at 92%.

In the case of `O=C(O)[C@H]1CCCN1C(=O)Cc1cccc(CC(=O)N2CCC[C@@H]2C(=O)O)c1` [Ro-64-2668, (R)-1-[[3-[2-[(R)-2-Carboxy-pyrrolidin-1-yl]-2-oxo-ethyl]-phenyl]-acetyl]-pyrrolidine-2-carboxylic acid], on SAP [1], the inhibition at 0.2 µM amounted to 28%, the inhibition at 2 µM was 64%, the inhibition at 20 µM came to 92% and the inhibition at 200 µM is 100%. Further, on SAP [1], the inhibition at 2000 µM came out at 100%. At SAP [2], the inhibition at 0.2 µM is 0%, the inhibition at 2 µM is 18%, the inhibition at 20 µM was 56% and the inhibition at 200 µM was found to be 94%. The inhibition at 2000 µM on SAP [2] is 98%. Besides, on SAP [3], the inhibition at 0.2 µM is 25%, the inhibition at 2 µM worked out at 68%, the inhibition at 20 µM came to 73% and the inhibition at 200 µM worked out at 77%. Moreover, the inhibition at 2000 µM on SAP [3] was 82%.

What is called inhibition is how much of the control response was suppressed.
